Read-outs that look alike come from different tables or passages of the source.
Assays:
Assay type in all cases: cell-based
[1] = tested on: TNFα-FL/Gaussia Luciferase; test: Dox Induced TNFα-FL-Gluc Assay; settings: 293FRT/TO cells, read-out: 24 hr Dox Inducible TNFaFLGluc 293FRT/TO: Mean IC50
How it was run: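 Compounds were added in doxycycline-containing DMSO/media to cells plated the previous day and incubated at 37° C under 5% CO2. These cells stably express a TNFα-FL/Gaussia luciferase cDNA whose expression is under T-REx (Dox-inducible) control, selected with Hygromycin and Blasticidin.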

[2] = tested on: HER3-ss+4aa/Gaussia Luciferase; test: Dox-Induced Her3-ss-Gluc Assay; settings: 293FRT/TO cells, read-out: 24 hr Dox Inducible Her3(ss + 4)Gluc 293FRT/TO: Mean IC50
How it was run: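 Compounds, diluted in DMSO/media containing doxycycline, were incubated at 37° C., 5% CO2 with cells seeded one day earlier. The cells stably express HER3-ss+4aa/Gaussia luciferase under T-REx control. Where no stereochemistry is shown, data refer to the mixture of stereoisomers.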

[3] = tested on: PD1-ss+10aa/Gaussia Luciferase; test: Dox-Induced PD1-ss-Gluc Assay; settings: 293FRT/TO cells, read-out: 24 hr Dox Inducible PD1ssGluc 293FRT/TO: Mean IC50
How it was run: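 Compounds, diluted in DMSO/media with doxycycline, were added to cells plated a day earlier and kept at 37° C under 5% CO2. The cells stably express a Gaussia luciferase construct fused to PD1-ss+10aa, induced via the T-REx system. Unassigned stereochemistry means mixture data.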

[4] = tested on: human multiple myeloma cell line NCI-H929; test: H929 Cell Viability Assay; settings: read-out: 48 hr H929 Viability Celltiter-Glo: Mean EC50
Procedure: Plates were incubated at 37° C., 5% CO2 for 48 hours. After 48 hours, Celltiter-Glo® (Promega) was added to each well and luciferase signal was quantified using Tecan Infinite M1000 Pro for cell viability determination.
For chemical structures that include one or more stereoisomers, but are illustrated without indicating stereochemistry, the assay data refers to a mixture of stereoisomers.

[5] = tested on: IL-2-FL/Gaussia Luciferase; test: Dox Induced IL2-FL-Gluc Assay; settings: 293FRT/TO cells, read-out: 24 hr Dox Inducible IL2FLGIuc 293FRT/TO: Mean IC50
How it was run: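 Compounds were added together with doxycycline in DMSO/media and incubated at 37° C., 5% CO2. The cells were a stably selected line carrying IL-2-FL/Gaussia luciferase under T-REx inducible control. Structures drawn without stereochemistry were tested as stereoisomer mixtures.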

[6] = tested on: human multiple myeloma cell line U266B1; test: U266 Cell Viability Assay; settings: read-out: 48 hr U266 Viability Celltiter-Glo: Mean EC50
How it was run: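 Viability measured by CellTiter-Glo luciferase signal after 48 h compound exposure (37 °C, 5% CO2) of U266B1 cells in 384-well format. Where stereochemistry is not shown, data refer to the stereoisomer mixture.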

[7] = 24 hr doxycycline induction, Gaussia luciferase signal
[8] = 48 hr, NCI-H929 cells, Celltiter-Glo
[9] = U-266, 48 hr, U266B1 cells, Celltiter-Glo

Row | IC50 [1, 7] [µM] | IC50 [2, 7] [µM] | IC50 [3, 7] [µM] | EC50 [4, 8] [µM] | IC50 [5, 7] [µM] | EC50 [6, 9] [µM] | IC50 ([1]; 24 hr, doxycycline-induced) [µM] | IC50 ([2]; 24 hr, doxycycline-induced) [µM] | IC50 ([3]; 24 hr, doxycycline-induced) [µM] | IC50 ([5]; 24 hr, doxycycline-induced) [µM] | SMILES | EC50 ([4]; NCI-H929, 48 h) [µM] | EC50 ([6]; U-266, 48 h) [µM]
1 | 12.1 | 1.24 | 0.703 | > 25 | 1.07 | > 25 | – | – | – | – | Cc1sc(NC(=O)c2cccn2Cc2ccncc2)nc1C(C)(C)OC(C)C [Compound A37, N-(4-(2-isopropoxypropan-2-yl)-5-methylthiazol-2-yl)-1-(pyridin-4-ylmethyl)-1H-pyrrole-2-carboxamide] | – | –
2 | > 25 | > 25 | 9.85 | > 25 | > 25 | > 25 | – | – | – | – | CC(C)(O)c1cnc(NC(=O)c2cccn2Cc2ccncc2)s1 [Compound A89] | – | –
3 | – | – | – | 22.3 | – | 17.2 | 9.74 | 3.81 | 0.524 | 11.3 | Cc1cccc(/C=C\c2csc(NC(=O)c3cccn3Cc3ccncc3)n2)n1 [Compound A355] | – | –
4 | > 25 | 6.22 | 2.08 | > 25 | 4.17 | > 25 | – | – | – | – | CC(C)OC(C)(C)c1csc(NC(=O)c2cccn2Cc2ccnnc2)n1 [Compound A69, N-(4-(2-isopropoxypropan-2-yl)thiazol-2-yl)-1-(pyridazin-4-ylmethyl)-1H-pyrrole-2-carboxamide] | – | –
5 | 5.11 | 0.568 | 0.153 | > 25 | 1.05 | > 25 | – | – | – | – | O=C(Nc1nc(/C=C/c2ccccc2)cs1)c1cccn1Cc1ccncc1 [Compound A14, 1-(pyridin-4-ylmethyl)-N-(4-styrylthiazol-2-yl)-1H-pyrrole-2-carboxamide] | – | –
6 | 7.17 | 0.51 | 0.248 | > 25 | 0.351 | > 25 | – | – | – | – | Cc1sc(NC(=O)c2cccn2Cc2ccncc2)nc1C(C)OC(C)C (stereo not drawn) [Compound A20, N-(4-(1-isopropoxyethyl)-5-methylthiazol-2-yl)-1-(pyridin-4-ylmethyl)-1H-pyrrole-2-carboxamide] | – | –
7 | > 25 | > 25 | > 25 | > 25 | > 25 | > 25 | – | – | – | – | CCc1nc(NC(=O)c2cccn2Cc2cccnc2)sc1C [Compound A131, N-(4-ethyl-5-methylthiazol-2-yl)-1-(pyridin-3-ylmethyl)-1H-pyrrole-2-carboxamide] | – | –
8 | > 25 | 0.145 | 0.063 | 4.15 | 0.237 | > 25 | – | – | – | – | O=C(Nc1nc(/C=C/c2ccc3c(c2)OC(F)(F)O3)cs1)c1cccn1Cc1ccncc1 [Compound A235, N-(4-(2-(2,2-difluorobenzo[d][1,3]dioxo1-5-yl)vinyl)thiazol-2-yl)-1-(pyridin-4-ylmethyl)-1H-pyrrole-2-carboxamide] | – | –
9 | 5.01 | 0.377 | 0.185 | > 23.9 | 0.266 | > 25 | – | – | – | – | CC(C)OC(C)(C)c1csc(NC(=O)c2cccn2Cc2ccncc2)n1 [Compound A16, N-(4-(2-isopropoxypropan-2-yl)thiazol-2-yl)-1-(pyridin-4-ylmethyl)-1H-pyrrole-2-carboxamide] | – | –
10 | – | – | – | > 25 | – | > 25 | > 25 | > 25 | 6.66 | > 25 | O=C(Nc1nccs1)c1cccn1Cc1ccncc1 [Compound B6] | – | –
11 | > 25 | 7.88 | 3.16 | 20.9 | 6.38 | > 25 | – | – | – | – | CC(C)OC(C)(C)c1csc(NC(=O)c2cccn2Cc2ccccc2Cl)n1 [Compound A78] | – | –
12 | > 25 | > 18.1 | 5.23 | > 25 | 3.44 | > 25 | – | – | – | – | CC(C)OC(C)(C)c1csc(NC(=O)c2cccn2CCCc2cccnc2)n1 [Compound A190, N-(4-(2-isopropoxypropan-2-yl)thiazol-2-yl)-1-(3-(pyridin-3-yl)propyl)-1H-pyrrole-2-carboxamide] | – | –
13 | – | – | – | > 25 | – | > 25 | > 25 | > 25 | > 25 | > 25 | N#Cc1cnc(NC(=O)c2cccn2Cc2ccncc2)s1 [Compound B15] | – | –
14 | – | – | – | 17.9 | – | > 25 | 3.57 | 0.443 | 0.029 | 0.765 | O=C(Nc1nc(/C=C/c2ncc(F)cc2F)cs1)c1cccn1Cc1ccncc1 [Compound A358] | – | –
15 | > 25 | > 25 | > 25 | > 25 | > 25 | > 25 | – | – | – | – | CC(C)OC(C)(C)c1csc(NC(=O)c2ccc(C(=O)N(C)C)n2Cc2ccncc2)n1 [Compound A107, N2-(4-(2-isopropoxypropan-2-yl)thiazol-2-yl)-N5,N5-dimethyl-1-(pyridin-4-ylmethyl)-1H-pyrrole-2,5-dicarboxamide] | – | –
16 | 24.2 | 3.14 | 1.46 | > 25 | 3.12 | > 25 | – | – | – | – | CC(C)(CCc1ccccn1)c1csc(NC(=O)c2cccn2Cc2ccncc2)n1 [Compound A262] | – | –
17 | – | – | – | > 25 | – | > 25 | > 25 | 7.9 | 3.86 | 6.36 | O=C(Nc1nc([C@@H]2CCCN2C(=O)c2ccccc2)cs1)c1cccn1Cc1ccncc1 [Compound A313] | – | –
18 | > 25 | 0.596 | 0.281 | > 25 | > 25 | > 25 | – | – | – | – | O=C(Nc1nc(C2=Cc3ccccc3C2)cs1)c1cccn1Cc1ccncc1 [Compound A242, N-(4-(1H-inden-2-yl)thiazol-2-yl)-1-(pyridin-4-ylmethyl)-1H-pyrrole-2-carboxamide] | – | –
19 | 0.821 | 0.129 | 0.052 | 7.29 | 0.291 | > 25 | – | – | – | – | O=C(Nc1nc(C2CC(c3ccccc3)C2)cs1)c1cccn1Cc1ccncc1 (stereo not drawn) [Compound A268] | – | –
20 | 22.2 | > 25 | 3.18 | 9.06 | 14.1 | 17.5 | – | – | – | – | CC(=O)N(C)c1ccc(/C=C/c2csc(NC(=O)c3cccn3Cc3ccncc3)n2)cc1 [Compound A245] | – | –
21 | 16.1 | 1.84 | 1.23 | 17.8 | 2.86 | 16.7 | – | – | – | – | O=C(Nc1nc(C2CCN(c3ccccc3)CC2)cs1)c1cccn1CCCc1ccncc1 [Compound A285] | – | –
22 | – | – | – | 11.4 | – | > 25 | 3.01 | 0.411 | 0.13 | 0.752 | COc1cnc([C@@H]2C[C@H]2c2csc(NC(=O)c3cccn3Cc3ccncc3)n2)c(F)c1 [Compound A335] | – | –
23 | 13.3 | 1.48 | 0.963 | > 24.8 | 0.837 | > 25 | – | – | – | – | CC(C)OC(C)(C)c1csc(NC(=O)c2cccn2CCCCc2ccncc2)n1 [Compound A44, N-(4-(2-isopropoxypropan-2-yl)thiazol-2-yl)-1-(4-(pyridin-4-yl)butyl)-1H-pyrrole-2-carboxamide] | – | –

Row | SMILES | IC50 [1, 7] [µM] | IC50 [2, 7] [µM] | IC50 [3, 7] [µM] | EC50 [4, 8] [µM] | IC50 [5, 7] [µM] | EC50 [6, 9] [µM] | IC50 ([1]; 24 hr, doxycycline-induced) [µM] | IC50 ([2]; 24 hr, doxycycline-induced) [µM] | IC50 ([3]; 24 hr, doxycycline-induced) [µM] | IC50 ([5]; 24 hr, doxycycline-induced) [µM] | EC50 ([4]; NCI-H929, 48 h) [µM] | EC50 ([6]; U-266, 48 h) [µM]
24 | O=C(Nc1nc(C2=CCN(Cc3ccccc3)CC2)cs1)c1cccn1Cc1ccncc1 [Compound A259] | > 25 | 7.11 | 0.516 | – | 10.5 | – | – | – | – | – | > 25 | > 25
